Source: patent publication US20210079402A1, “INHIBITION OF ZSCAN4 FOR INHIBITION OF TUMOR GROWTH” (University of Maryland, Baltimore, priority 2018, published 2021)
One block for each molecule: values may come before it. Where a SMILES comes first, the peptide text is derived from it. The star is where a group is joined. Cbz = O=C(OCc1ccccc1)*

Columns and labels:
[1] = test system: autophagy in tet-ZSCAN4 Tu167 cells; experiment: Autophagy pathway assay (immunoblot); format: cell-based, human; settings: 5 nM Bafilomycin A1 or 25 μM Chloroquine
Experimental: tet-ZSCAN4 Tu167 cells were treated for 24 h with Dox and then autophagy inhibitors: 5 nM of Bafilomycin A1 or 25 μM of Chloroquine (Sigma) were added for 24 h. Whole cell lysate (50 μg) in RIPA buffer was used on 8% SDS-PAGE analyzed by immunoblot to visualize the following antigens: anti-ZSCAN4 (1:1000; Origene), anti-p62 (1:5000; Sigma), anti-LC3 (1:1000; CellSignaling Technology), Anti-Beta Actin (1:10,000; Millipore). All data shown represent at least 3 independent experiments.

[2] = test system: proteasome; experiment: ZSCAN4 accumulation after proteasome inhibition (immunoblot); format: cell-based, human
Experimental: Nuclear proteins were fractionated using Nuclear Extraction Kit following manufacture's protocol (Active Motif). Total cell lysate was prepared in RIPA buffer and sonicated. For the detection of endogenous ZSCAN4 in Tu167 cells, cells were harvested by accutase (Millipore) and Cytoskeleton buffer (10 mM PIPES, 300 mM sucrose, 100 mM NaCl, 3 mM MgCl2, 1 mM EGTA and 0.5% Triton X100) was used to fractionate cytosolic proteins. Then, pellets were lysed in urea solution (8 M Urea in 0.01 Tris pH 8+0.1 M NaH2PO4) and sonicated. Nuclear proteins were electrophoresed in 8% polyacrylamide gels and transferred to a PVDF membrane. Immunoblot was performed using the following primary antibodies: ZSCAN4 (Origene; 1:1000), GAPDH (Santa Cruz; 1:5000), Actin (Sigma; 1:500), Lamin B (Santa Cruz; 1:2000) and with HRP (horseradish peroxidase) conjugated secondary antibodies (Millipore; 1:5000). Protein bands were detected using Pierce ECL Western Blotting Substrate (Thermo Scientific). SuperSignal West Femto (Thermo Scientific) was used to detect endogenous ZSCAN4 in Tu167 cells. All immunoblots shown represent at least 3 independent experiments.
WT Tu167 cells were treated with indicated concentration of MG132 for 3-12 h. Cells treated with vehicle only were used as controls. Nuclear protein was isolated using urea extraction buffer. Then, 100 μg of nuclear lysate was diluted in IP-RIPA buffer with 0.1% SDS and denatured by heating to 90° C. for 10 minutes. Samples were taken for co-immunoprecipitation and immunoblot analyses.
This prompted examination of the UPS. tet-ZSCAN4 cells were incubated with the proteasome inhibitor MG132 at multiple time points. […] Furthermore, we show a time dependence (FIG. 18C) and a dose response (FIG. 18D) to proteasome inhibition by MG132.
To exclude that the response was specific to the exogenous ZSCAN4 induction, wild type (WT) Tu167 cells were treated with 5 uM MG132 for 0-12 h.

[3] = test system: proteasome; experiment: ZSCAN4 / K48 ubiquitin co-localization by confocal microscopy; format: cell-based, human; settings: WT Tu167 cells, 5 h; untreated about 5%
Experimental: Cells were fixed in ice cold methanol/acetic acid (3:1). The fixed cells were dropped on microscope slides. Antigen retrieval was performed followed by blocking for 10 min at room temperature. Primary antibody was incubated overnight at 4° C. for the following antigens: ZSCAN4 (Origene, 1:1000) and Ubiquitin Lysine 48 (Millipore 1: 2000). The slides were washed and incubated with secondary antibodies conjugated with Alexa-488 or 568 at room temperature for 1 h and then treated with DAPI and To-Pro-3 to stain the nuclei. Slides were mounted and visualized by a Zeiss 510-confocal microscope. Co-localization analyses were performed by ImageJ software (Schneider et al., 2012);
To further validate the lysine 48 polyubiquitination of ZSCAN4 protein, WT Tu167 cells were treated with or without MG132 for 5 h and co-immunostained for anti-K48-Ub and anti-ZSCAN4 (FIG. 19C).

[4] = target: T1, telomerase (UniProt O14746 1-1132, limits assumed); experiment: ZSCAN4 complex analysis (ZSCAN4 immunoprecipitation followed by mass spectrometry)
T1 construct: The tie to the hTERT protein subunit is my reading; also called hTERT
T1 sequence (O14746 whole entry): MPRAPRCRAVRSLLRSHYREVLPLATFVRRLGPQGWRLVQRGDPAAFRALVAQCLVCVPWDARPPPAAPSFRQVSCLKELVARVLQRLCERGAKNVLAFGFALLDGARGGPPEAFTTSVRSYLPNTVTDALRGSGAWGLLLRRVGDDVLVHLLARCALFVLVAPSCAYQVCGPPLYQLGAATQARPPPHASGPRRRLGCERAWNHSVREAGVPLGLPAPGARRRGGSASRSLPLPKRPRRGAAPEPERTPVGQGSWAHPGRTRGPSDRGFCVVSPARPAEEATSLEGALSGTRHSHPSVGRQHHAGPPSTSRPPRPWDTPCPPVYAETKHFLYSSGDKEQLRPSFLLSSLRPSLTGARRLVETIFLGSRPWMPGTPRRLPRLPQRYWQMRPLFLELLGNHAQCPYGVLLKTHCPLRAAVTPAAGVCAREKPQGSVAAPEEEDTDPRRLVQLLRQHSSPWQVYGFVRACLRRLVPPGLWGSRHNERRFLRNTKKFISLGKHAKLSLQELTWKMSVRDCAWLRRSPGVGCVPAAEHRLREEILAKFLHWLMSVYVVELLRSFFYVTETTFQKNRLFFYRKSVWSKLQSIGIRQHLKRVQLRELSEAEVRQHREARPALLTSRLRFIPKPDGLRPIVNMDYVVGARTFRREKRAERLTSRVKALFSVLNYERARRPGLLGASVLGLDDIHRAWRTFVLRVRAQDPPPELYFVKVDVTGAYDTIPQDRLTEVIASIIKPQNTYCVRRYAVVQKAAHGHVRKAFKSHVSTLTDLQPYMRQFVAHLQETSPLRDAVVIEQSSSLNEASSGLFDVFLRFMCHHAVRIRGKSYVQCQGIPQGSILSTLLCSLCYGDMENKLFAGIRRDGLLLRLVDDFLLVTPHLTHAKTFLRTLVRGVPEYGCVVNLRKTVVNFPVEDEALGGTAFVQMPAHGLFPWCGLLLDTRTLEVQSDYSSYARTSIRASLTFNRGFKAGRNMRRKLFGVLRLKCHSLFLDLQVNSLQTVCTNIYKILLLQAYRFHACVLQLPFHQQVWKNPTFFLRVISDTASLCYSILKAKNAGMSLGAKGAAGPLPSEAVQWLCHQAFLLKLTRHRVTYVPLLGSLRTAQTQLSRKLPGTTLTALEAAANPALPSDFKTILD

Molecule: CO/C1=C\C(C)=C\[C@@H](C)[C@@H](O)[C@@H](C)C/C(C)=C/C=C/[C@H](OC)[C@@H]([C@@H](C)[C@@H](O)[C@H](C)[C@@]2(O)C[C@@H](O)[C@H](C)[C@@H](C(C)C)O2)OC1=O [Bafilomycin A1]
- ZSCAN4 levels [1]: remained unchanged
- p62 and LC-3 levels [1]: accumulate

Molecule: CC(C)C[C@@H](C=O)NC(=O)[C@H](CC(C)C)NC(=O)[C@H](CC(C)C)NC(=O)OCc1ccccc1 [MG132] (Cbz-Leu-Leu-Leu-aldehyde)
- ZSCAN4 accumulation versus dose ([2]; tet-ZSCAN4 cells): dose response
- ZSCAN4 accumulation over time ([2]; tet-ZSCAN4 cells, multiple time points through 12 h): time dependent accumulation of ZSCAN4
- endogenous ZSCAN4 level ([2]; wild type Tu167 cells, 5 uM, 0-12 h): endogenous ZSCAN4 accumulates
- fraction of ZSCAN4 co-localized with K48-Ub relative to untreated [3]: 4 fold

Molecule: CCN(CC)CCCC(C)Nc1ccnc2cc(Cl)ccc12 (stereo not drawn) [Chloroquine]
- ZSCAN4 levels [1]: remained unchanged
- p62 and LC-3 levels [1]: accumulate

- binding result [4]: no binding
B1: human ZSCAN4 (Zinc finger and SCAN domain containing 4) (other, UniProt Q8NAM6 1-433, looked up)
chain: MALDLRTIFQCEPSENNLGSENSAFQQSQGPAVQREEGISEFSRMVLNSFQDSNNSYARQELQRLYRIFHSWLQPEKHSKDEIISLLVLEQFMIGGHCNDKASVKEKWKSSGKNLERFIEDLTDDSINPPALVHVHMQGQEALFSEDMPLRDVIVHLTKQVNAQTTREANMGTPSQTSQDTSLETGQGYEDEQDGWNSSSKTTRVNENITNQGNQIVSLIIIQEENGPRPEEGGVSSDNPYNSKRAELVTARSQEGSINGITFQGVPMVMGAGCISQPEQSSPESALTHQSNEGNSTCEVHQKGSHGVQKSYKCEECPKVFKYLCHLLAHQRRHRNERPFVCPECQKGFFQISDLRVHQIIHTGKKPFTCSMCKKSFSHKTNLRSHERIHTGEKPYTCPFCKTSYRQSSTYHRHMRTHEKITLPSVPSTPEAS
notes: Immunoprecipitated from nuclear protein lysates; also called FLAG-ZSCAN4; tet-FLAG-ZSCAN4
